Reference: PMC7777204, “Locking mixed-lineage kinase domain-like protein in its auto-inhibited state prevents necroptosis” (Proceedings of the National Academy of Sciences of the …, 2020)

Experiments:
[1] = system: U937 cells; test: U937 necroptosis assay; format: cell-based; conditions: Homo sapiens, U-937, huTNFα plus 10 µM zVAD-fmk, read-out: U937 NEC IC50
Experimental: For the Jurkat FADD^−/− Necroptosis assay, compounds were serially diluted in 100% dimethyl sulfoxide (DMSO) (Sigma-Aldrich catalog no. 41641), and 250 nL was transferred to a sterile 384-well microtiter plate (PerkinElmer catalog no. 6007688) via Echo liquid handler (LABCYTE). Five thousand Jurkat FADD ^−/− cells (ATCC catalog no. CRL-2572) in 20 µL of modified Roswell Park Memorial Institute medium (Gibco catalog no. 10491), 10% fetal calf serum (Gibco catalog no. 100500), 1x Anti/Anti (Gibco catalog no. 15240-062), 1x L-Glutamax (Gibco catalog no. 35050-087), and 1% PenStrep (SIGMA catalog no. P4333) were seeded into each well of the prepared assay plate with compound. Cells and compounds were incubated for 30 min at 37 °C (humidified incubator with 5% CO2). After incubation, 5 µL of recombinant human TNFα (huTNFα) (Biotrend catalog no. cyt-223; 10 ng/mL final concentration [f.c.]) was added to the cells, followed by an incubation of 24 h at 37 °C. Following the incubation, the experimental plates were equilibrated to room temperature (30 min) before 25 µL of Cell Titer Glo Luminescent Cell Viability Assay System reagent (Promega catalog no. G7571) was added to the plate wells, incubated at room temperature for ∼10 min. After incubation, the samples were analyzed for luminescence by using an Envision reader (PerkinElmer).
Each assay plate contained wells with “high” and “low” controls. High controls (100% CTL) were defined as cells treated with DMSO, and low controls (0% CTL) were defined as cells treated with 10 ng/mL recombinant huTNFα. IC50 values were calculated based on the percentage of control values using a four-parameter-fitting model.
MLKL antagonists were also evaluated in a necroptosis assay with U937 cells ([26]) (ATCC catalog no. CRL-1593.2). The assay procedure with U937 cells was as described for the Jurakt FADD^−/− necroptosis assay with the following modifications: 8,000 cells were seeded per well, and, in addition to the recombinant huTNFα, cells were also incubated in the presence of 10 µM (f.c.) carbobenzoxy-valyl-alanyl-aspartyl-[O-methyl]-fluoromethylketone (zVAD-fmk) (Enzo Life Sciences catalog no. ALX-260-020). Low controls (0% CTL) were defined as cells treated with 100 ng/mL recombinant huTNFα plus 10 µM zVAD-fmk.
All cellular assays were done for Cpd 1, Cpd 2, Cpd 3, Cpd 4, and Cpd 5 in duplicate and in quadruplet for NSA.

[2] = biological target: T1, MLKL F148A executioner domain (Homo sapiens, UniProt Q8NB16, F148A); test: Functional NMR assay (detachment of α-helix 6), F148A variant; format: biochemical
T1 construct: 80 µM MLKL N-terminal executioner domain (residues 1 to 154) was used; GST (thrombin cleavage site) (cleaved yes)
T1 sequence (Q8NB16 1-154 F148A): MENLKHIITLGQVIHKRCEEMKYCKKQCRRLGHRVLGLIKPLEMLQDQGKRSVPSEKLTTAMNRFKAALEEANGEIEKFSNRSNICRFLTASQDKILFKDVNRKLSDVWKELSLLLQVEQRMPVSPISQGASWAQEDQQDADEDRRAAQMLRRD
From the text: To test the significance of the additional interaction between α-helix 6 and the four-helix bundle provided by the xanthine compounds stacking to the phenyl ring of Phe148, we used a described functional NMR assay ([12]). Binding of phytic acid (IP6) and the detergent β-D-nonylmaltoside (NM) led to the detachment of α-helix 6, which can be monitored in ^1H,^15N-correlation spectra by the altered chemical shift of the Hε1–Nε1 correlation of Trp133 and the backbone N–H correlation of Ala141 ([12]). […] Adding 12 mM NM or 500 µM IP6 led to the appearance of a second very weak peak reporting on the detached α-helix 6 with a population of the activated state (pact) of 1% and 4%, respectively (Fig. 3). […]
Fig. 3. […] The spectra depicted in A are measured with the WT protein and in B with the F148A variant. […] The asterisk means that no active conformation could be detected. Double asterisks indicate data not determined.
For the functional NMR assay ^1H,^15N-correlation spectra were recorded on a Bruker Avance III HD 600-MHz NMR spectrometer equipped with a cryogenic QCI probe in 2.5-mm NMR tubes at 298 K. Spectra were recorded with 64 complex points in the indirect dimension, 96 scans, and an interscan delay of 2 s. […] Spectra were analyzed, and peaks were integrated in CcpNnmr analysis ([39]).

For `Cn1c(=O)c2c(nc(S(C)(=O)=O)n2C)n(CC#Cc2cccc(O)c2)c1=O` [Cpd 3], the IC50 [1] was 271 nM, the “Induction of the active state by compound alone” value ([2]; 500 µM compound alone) was “small population of the active state” and the “Population of the activated state (pact), α-helix 6 detached” value ([2]; 12 mM NM + 500 µM IP6 + 500 µM compound) was 90%.
